# Assay results published in ChEMBL document CHEMBL5291721, “A preclinical secondary pharmacology resource illuminates target-adverse drug reaction associations of marketed drugs” (Nat Commun, 2023).
# Columns and labels:
# [1] = target: T1, Alpha-1A adrenergic receptor (Homo sapiens, UniProt P35348); type: functional, cell-based
# T1 sequence (P35348 whole entry): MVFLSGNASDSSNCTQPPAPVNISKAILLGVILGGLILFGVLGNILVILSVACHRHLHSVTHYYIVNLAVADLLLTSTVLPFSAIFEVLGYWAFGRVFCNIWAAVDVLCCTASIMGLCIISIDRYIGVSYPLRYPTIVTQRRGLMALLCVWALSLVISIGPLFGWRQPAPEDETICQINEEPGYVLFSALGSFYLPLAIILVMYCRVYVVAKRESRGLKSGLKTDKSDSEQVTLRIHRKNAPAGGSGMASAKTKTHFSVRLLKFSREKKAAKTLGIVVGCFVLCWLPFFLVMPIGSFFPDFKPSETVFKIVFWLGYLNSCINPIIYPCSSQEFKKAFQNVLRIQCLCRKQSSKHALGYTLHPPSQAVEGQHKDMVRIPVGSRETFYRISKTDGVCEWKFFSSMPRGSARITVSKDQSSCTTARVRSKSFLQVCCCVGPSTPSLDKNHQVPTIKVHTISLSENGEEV
# Cannabinoid receptor 1 = Cannabinoid receptor 1 (Homo sapiens, UniProt P21554); type: functional, cell-based
# Sequence of Cannabinoid receptor 1 (P21554 whole entry): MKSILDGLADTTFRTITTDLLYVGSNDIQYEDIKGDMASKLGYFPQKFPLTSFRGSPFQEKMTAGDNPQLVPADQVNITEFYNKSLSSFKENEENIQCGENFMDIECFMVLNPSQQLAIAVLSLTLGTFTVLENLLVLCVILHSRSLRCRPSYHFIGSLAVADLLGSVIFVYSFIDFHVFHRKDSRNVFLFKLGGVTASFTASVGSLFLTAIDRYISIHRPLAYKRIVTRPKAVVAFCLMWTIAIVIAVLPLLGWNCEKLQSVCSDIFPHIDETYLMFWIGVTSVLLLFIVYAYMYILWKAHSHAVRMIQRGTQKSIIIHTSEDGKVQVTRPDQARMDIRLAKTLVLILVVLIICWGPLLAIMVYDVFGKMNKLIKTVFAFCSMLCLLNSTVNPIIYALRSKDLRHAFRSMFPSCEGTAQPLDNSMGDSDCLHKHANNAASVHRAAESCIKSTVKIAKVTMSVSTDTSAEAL
# Endothelin-1 receptor = target: T2, Endothelin-1 receptor (Homo sapiens, UniProt P25101)
# T2 sequence (P25101 whole entry): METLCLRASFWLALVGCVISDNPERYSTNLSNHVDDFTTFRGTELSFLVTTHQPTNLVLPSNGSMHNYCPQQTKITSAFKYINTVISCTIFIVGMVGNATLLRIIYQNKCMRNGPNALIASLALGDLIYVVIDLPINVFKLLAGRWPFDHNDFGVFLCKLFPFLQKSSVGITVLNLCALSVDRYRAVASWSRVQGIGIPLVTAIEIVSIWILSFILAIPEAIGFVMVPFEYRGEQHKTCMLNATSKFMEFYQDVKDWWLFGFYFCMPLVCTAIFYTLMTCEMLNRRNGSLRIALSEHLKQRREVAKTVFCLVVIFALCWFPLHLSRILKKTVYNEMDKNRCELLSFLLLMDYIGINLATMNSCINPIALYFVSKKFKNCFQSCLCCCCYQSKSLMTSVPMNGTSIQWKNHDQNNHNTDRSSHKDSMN
# [2] = target: T3, 5-hydroxytryptamine receptor 1A (Homo sapiens, UniProt P08908); type: functional, cell-based
# T3 sequence (P08908 whole entry): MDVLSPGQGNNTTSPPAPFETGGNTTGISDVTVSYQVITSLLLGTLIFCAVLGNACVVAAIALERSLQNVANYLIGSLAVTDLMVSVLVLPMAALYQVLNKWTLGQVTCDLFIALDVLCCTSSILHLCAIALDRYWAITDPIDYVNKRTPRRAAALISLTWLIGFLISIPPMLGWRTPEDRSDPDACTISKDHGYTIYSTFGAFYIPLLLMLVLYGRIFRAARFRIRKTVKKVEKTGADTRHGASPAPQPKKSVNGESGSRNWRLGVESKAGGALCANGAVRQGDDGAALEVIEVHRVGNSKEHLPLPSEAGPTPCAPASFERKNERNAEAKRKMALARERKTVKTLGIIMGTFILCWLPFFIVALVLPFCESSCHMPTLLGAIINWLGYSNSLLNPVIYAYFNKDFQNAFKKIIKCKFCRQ
# [3] = target: T3, 5-hydroxytryptamine receptor 1A
# Thromboxane A2 receptor = target: T4, Thromboxane A2 receptor (Homo sapiens, UniProt P21731); type: functional, cell-based
# T4 sequence (P21731 whole entry): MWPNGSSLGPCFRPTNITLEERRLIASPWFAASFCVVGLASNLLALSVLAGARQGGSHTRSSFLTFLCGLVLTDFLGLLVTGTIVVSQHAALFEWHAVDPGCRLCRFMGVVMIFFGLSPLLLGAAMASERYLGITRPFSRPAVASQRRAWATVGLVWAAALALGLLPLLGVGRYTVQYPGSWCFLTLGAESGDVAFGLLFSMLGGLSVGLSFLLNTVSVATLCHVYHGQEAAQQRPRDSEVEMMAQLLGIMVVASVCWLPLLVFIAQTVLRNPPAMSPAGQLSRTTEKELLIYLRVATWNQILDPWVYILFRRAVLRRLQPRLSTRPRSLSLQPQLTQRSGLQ
# [4] = target: Sodium-dependent dopamine transporter (Homo sapiens, UniProt Q01959)
# Sequence of Sodium-dependent dopamine transporter (Q01959 whole entry): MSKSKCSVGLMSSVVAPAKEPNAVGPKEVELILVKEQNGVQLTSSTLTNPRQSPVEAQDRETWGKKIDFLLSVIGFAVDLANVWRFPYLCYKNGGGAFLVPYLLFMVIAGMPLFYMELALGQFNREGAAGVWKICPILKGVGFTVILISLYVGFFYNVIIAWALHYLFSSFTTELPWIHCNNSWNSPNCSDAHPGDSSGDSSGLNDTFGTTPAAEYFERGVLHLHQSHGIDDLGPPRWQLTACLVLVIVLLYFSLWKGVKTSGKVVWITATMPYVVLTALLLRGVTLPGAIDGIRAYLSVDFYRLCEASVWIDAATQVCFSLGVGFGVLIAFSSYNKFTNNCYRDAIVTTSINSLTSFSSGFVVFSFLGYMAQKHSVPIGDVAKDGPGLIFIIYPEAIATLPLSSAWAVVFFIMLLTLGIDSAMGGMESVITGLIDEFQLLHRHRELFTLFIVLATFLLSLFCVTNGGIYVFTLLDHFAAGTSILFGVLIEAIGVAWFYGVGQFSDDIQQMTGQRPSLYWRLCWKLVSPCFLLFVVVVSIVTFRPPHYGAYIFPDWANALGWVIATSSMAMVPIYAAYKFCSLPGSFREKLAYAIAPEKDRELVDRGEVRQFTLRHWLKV
# [5] = target: T5, Gastrin/cholecystokinin type B receptor (Homo sapiens, UniProt P32239)
# T5 sequence (P32239 whole entry): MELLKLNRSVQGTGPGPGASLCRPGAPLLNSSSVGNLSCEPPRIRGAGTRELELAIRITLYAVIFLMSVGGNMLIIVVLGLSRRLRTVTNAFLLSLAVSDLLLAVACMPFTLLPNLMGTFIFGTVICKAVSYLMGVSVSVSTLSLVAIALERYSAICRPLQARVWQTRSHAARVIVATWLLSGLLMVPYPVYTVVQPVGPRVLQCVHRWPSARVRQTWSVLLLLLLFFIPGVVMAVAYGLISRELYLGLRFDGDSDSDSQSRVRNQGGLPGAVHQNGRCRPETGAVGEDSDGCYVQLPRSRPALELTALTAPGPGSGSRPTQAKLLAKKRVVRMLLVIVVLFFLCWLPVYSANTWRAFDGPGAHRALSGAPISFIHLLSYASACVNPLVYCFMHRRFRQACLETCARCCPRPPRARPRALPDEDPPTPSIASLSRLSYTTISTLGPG
# Further: assay procedure not described here.
SMILES,AC50 [1] [µM],AC50 (Cannabinoid receptor 1) [µM],AC50 (Endothelin-1 receptor) [µM],AC50 [2] [µM],AC50 [3] [µM],AC50 (Thromboxane A2 receptor) [µM],AC50 [4] [µM],AC50 [5] [µM]
CN(C)CCC=C1c2ccccc2C(C)(C)c2ccccc21,> 30,> 30,> 30,> 30,,,,
CC(=O)Nc1ccc(O)cc1 [ACETAMINOPHEN],> 30,> 30,> 30,> 30,> 30,> 30,> 30,
CCCSc1ccc2nc(NC(=O)OC)[nH]c2c1 [ALBENDAZOLE],,,,> 10,,,,
COC(c1ccccc1)(c1ccccc1)[C@H](Oc1nc(C)cc(C)n1)C(=O)O [AMBRISENTAN],,,,,> 30,> 30,> 30,
CCc1oc2ccccc2c1C(=O)c1cc(I)c(O)c(I)c1 [BENZIODARONE],,,,,12.4,> 1,9.96,
CN(C)CCn1nnnc1SCC1=C(C(=O)O)N2C(=O)[C@@H](NC(=O)Cc3csc(N)n3)[C@H]2SC1 [CEFOTIAM],,,,,> 30,> 30,> 30,
COCc1c(C(C)C)nc(C(C)C)c(/C=C/[C@@H](O)C[C@@H](O)CC(=O)O)c1-c1ccc(F)cc1 [CERIVASTATIN],,,,,> 30,20.1,> 30,
Oc1c(Cl)cc(Cl)c2cccnc12 [CHLOROXINE],,,,,17.2,> 30,> 30,
C[N+](C)(C)CCO [CHOLINE],,,,,> 30,> 30,> 30,
CN(C)[C@@H](c1cccc(O)c1)[C@H]1CCCC[C@H]1O [CIRAMADOL],,,,,> 30,> 30,29.6,
CN(C)/N=N/c1[nH]cnc1C(N)=O [DACARBAZINE],,,,> 10,,,,
CN(C)CC(c1ccc(O)cc1)C1(O)CCCCC1 (stereo not given) [DESVENLAFAXINE],,,,,> 30,> 30,,
CN(C)CCN1C(=O)c2ccccc2N(C)c2ccccc21 [DIBENZEPIN],,,,,0.306,> 30,> 30,
N[C@H](C(=O)O)[C@H](O)c1ccc(O)c(O)c1 [DROXIDOPA],,,,,> 30,> 30,> 30,
C[C@]12CC[C@@H]3c4ccc(O)cc4CC[C@H]3[C@@H]1C[C@@H](O)[C@@H]2O [ESTRIOL],,,,,> 30,> 30,28.7,
Cc1cc(C#N)cc(C)c1Oc1nc(Nc2ccc(C#N)cc2)nc(N)c1Br [ETRAVIRINE],,,,,> 30,> 3,> 10,
O=C(O)c1cc(O)ccc1O [GENTISIC ACID],,,,,> 30,> 30,> 30,
CCC1=C(C)CN(C(=O)NCCc2ccc(S(=O)(=O)NC(=O)N[C@H]3CC[C@H](C)CC3)cc2)C1=O [GLIMEPIRIDE],,,,,> 30,18.5,> 30,
C[N+]1(C)CCC(OC(=O)C(O)(c2ccccc2)C2CCCC2)C1 (stereo not given) [GLYCOPYRRONIUM BROMIDE],,,,,,> 30,,> 30
O=P1(NCCCl)OCCCN1CCCl (stereo not given) [IFOSFAMIDE],,,,> 30,,,,> 30
CC(C)Nc1ncccn1 [ISAXONINE],,,,,> 30,> 30,> 30,

SMILES,AC50 [1] [µM],AC50 (Cannabinoid receptor 1) [µM],AC50 (Endothelin-1 receptor) [µM],AC50 [2] [µM],AC50 [3] [µM],AC50 (Thromboxane A2 receptor) [µM],AC50 [4] [µM],AC50 [5] [µM]
c1ccc([C@H]2CN3CCSC3=N2)cc1 [LEVAMISOLE],> 30,> 30,> 30,> 30,,,,
N[C@@H](C(=O)N[C@@H]1C(=O)N2C(C(=O)O)=C(Cl)CC[C@H]12)c1ccccc1 [LORACARBEF ANHYDROUS],,,,,> 30,> 30,> 30,
C[C@H]1CNCCc2ccc(Cl)cc21 [LORCASERIN],> 30,2.6,> 30,4.4,,,,
Cc1cccc(Nc2ccccc2C(=O)O)c1C [MEFENAMIC ACID],,,,> 10,> 30,> 30,> 30,
C[C@@H](O)[C@H]1C(=O)N2C(C(=O)O)=C(S[C@@H]3CN[C@H](C(=O)N(C)C)C3)[C@H](C)[C@H]12 [MEROPENEM],> 300,> 300,> 300,> 300,,,,
OCCN1C[C@H](O)[C@@H](O)[C@H](O)[C@H]1CO [MIGLITOL],,,,,> 30,> 30,> 30,
Clc1ccc(C(c2ccccc2Cl)C(Cl)Cl)cc1 (stereo not given) [MITOTANE],,,,> 10,,,,
CC(=O)N[C@@H]1[C@@H](O)[C@H](O)[C@@H](CO)O[C@H]1O [N-ACETYLGLUCOSAMINE],,,,,> 30,> 30,> 30,
O=C(CCNNC(=O)c1ccncc1)NCc1ccccc1 [NIALAMIDE],,,,,> 30,> 30,> 30,
CC[N+]1(C)[C@@H]2CC(OC(=O)[C@H](CO)c3ccccc3)C[C@H]1[C@@H]1O[C@@H]12 (stereo not given in full) [OXITROPIUM],,,,,> 30,> 30,> 30,
CC(C)(C)NC[C@H](O)COc1ccccc1C1CCCC1 [PENBUTOLOL],,,,,0.0036,16.1,> 30,
CC(C)(S)[C@@H](N)C(=O)O [PENICILLAMINE],,,,,> 30,> 30,> 30,
C1CCC(C(CC2CCCCN2)C2CCCCC2)CC1 (stereo not given) [PERHEXILINE],> 10,> 30,> 30,> 3,,,,
CN(C)S(=O)(=O)c1ccc2c(c1)N(CCCN1CCC(CCO)CC1)c1ccccc1S2 [PIPOTIAZINE],,,,,0.32,15.7,8.9,
COc1cc(NC(C)CCCN)c2ncccc2c1 (stereo not given) [PRIMAQUINE],,,> 30,,,> 30,,> 30
C=C[C@H]1C[N@@]2CC[C@H]1C[C@H]2[C@H](O)c1ccnc2ccc(OC)cc12 [QUININE],,,,,> 30,> 30,> 30,
CCC(=O)NCC[C@@H]1CCc2ccc3c(c21)CCO3 [RAMELTEON],,,,,> 30,> 30,> 30,
CCOC(=O)[C@H](CCc1ccccc1)N[C@@H](C)C(=O)N1[C@H](C(=O)O)C[C@H]2CCCC[C@@H]21 [TRANDOLAPRIL],,,,,> 30,> 30,> 30,
N[C@@H]1[C@H]2CN(c3nc4c(cc3F)c(=O)c(C(=O)O)cn4-c3ccc(F)cc3F)C[C@@H]12 [TROVAFLOXACIN],> 30,> 30,> 30,> 30,,,,
CCCCCCOc1nsnc1C1=CCCN(C)C1 [XANOMELINE],,,,,0.243,> 30,3.37,
